Measurements as given in US20240108618A1, “KRAS G12C INHIBITOR DOSING REGIMENS” (Eli Lilly and Company, priority 2022, published 2024).
Several values for one entry are separate records, joined by “and”; a condition that tells them apart may be missing. Identical values can stand only once. Entries after “also recorded” stand apart in the source; their conditions may differ.

Key:
SW837 = SW837 (CRC) xenograft model; type: in vivo, mouse
Description: For xenograft models of H1373, HCC44, MiaPaca-2, SW1463, SW837, KYSE-410 and UM-UC-3, typically 5-10×10^6 cells in a 1:1 matrigel mix (0.2 mL total volume) are implanted by subcutaneous injection in hind leg of nude mice. […] Treatment is initiated with oral administration (gavage) of testing compound or vehicle (20% captisol, 25 mM phosphate, pH2.0) in 0.2 mL volume when tumor size reaches approximately 200-300 mg. Tumor growth and body weight are monitored over time to evaluate efficacy and signs of toxicity. For EL3187 PDX model, frozen vials containing tumor fragments are thawed at 37° C. in a water bath. The tumor fragments are transferred to 50 mL Falcon tube and the ice cold DMEM medium is slowly added into the tube to a total volume of 35 mL. Then the tumor fragments are centrifuged at 130×g for 2 minutes at 4° C. and supernatant is aspirated. This washing step is repeated twice and the tumor fragments are resuspended in 10 mL DMEM for implantation into athymic nude-Foxn1nu mice (Envigo RMS, Inc., Mount Comfort, Indiana). Once tumor volumes reach 800 to 1000 mm^3, animals are sacrificed and tumors are harvested using aseptic technique. Fresh tumors are cut into 10 to 15 mm^3 fragments and placed into cold Gibco hibernate medium. The tumor fragments are subcutaneously implanted into animals with a 10 g trochar needle. When tumor size reaches 200 to 300 mm^3, the animals are randomized for compound treatment.
Among models listed in Table 2, EL3187 is a patient-derived xenograft (PDX) model, and all other are tumor xenograft models.

[1] = test system: KRAS G12C-mutant advanced NSCLC; experiment: NCT04956640 Phase 1b Cohort B4 (with pembrolizumab) clinical response (BOR, ORR, DCR, DOR, TTR, % change from baseline, treatment duration); type: in vivo, human; settings: for Time to response (TTR) 2 to <4 months / Time to response (TTR) <2 months: Phase 1b Cohort B4 responders
Description: The term “BOR” as used herein refers to best overall response based on investigator assessments using RECIST criteria (version 1.1). The minimum duration for BOR of SD is at least 6 weeks after the date of first dose of study drug.
The term “DOR” as used herein refers to duration of response, wherein DOR in months is calculated as the event or censoring date minus the response start date plus 1 day divided by 30.4375.
The term “ORR” as used herein refers to objective response rate, wherein objective response rate is the proportion of patients with BOR of CR or PR. Objective response rate, unconfirmed, is the proportion of patients with BOR of CR, PR, or uPR.
The term “TTR” as used herein refers to time to response, wherein TTR in months is calculated as response start date minus first dose date plus 1 day divided by 30.4375.

[2] = Phase 1b Cohort B4, Total (N = 13)
[3] = Phase 1b Cohort B4, individual patients, starting dose 50 BID, prior KRAS G12Ci Y
[4] = Phase 1b Cohort B4, individual patients, starting dose 100 BID, no prior KRAS G12Ci, listed as compound of Formula I
[5] = Phase 1b Cohort B4, individual patients, starting dose 150 BID, no prior KRAS G12Ci, listed as compound of Formula I
[6] = Phase 1b Cohort B4, individual patients, starting dose 150 BID, prior KRAS G12Ci Y, listed as compound of Formula I
[7] = Phase 1b Cohort B4, starting dose 50 mg BID (N = 1)
[8] = Phase 1b Cohort B4, starting dose 100 mg BID (N = 6)
[9] = Phase 1b Cohort B4, starting dose 150 mg BID (N = 6)
[10] = starting dose 50 mg BID (N = 1)
[11] = starting dose 100 mg BID (N = 6)
[12] = starting dose 150 mg BID (N = 6)

Compound: C=CC(=O)N1CCN2C(=O)c3cc(F)c(-c4ccc(F)c5sc(N)c(C#N)c45)c(Cl)c3OCC[C@H]2C1 (single isomer, unassigned) [Formula I]
- tumor growth inhibition (%) or regression (− %) (SW837; 5 mg/kg BID x28): 83.6%
- tumor growth inhibition (%) or regression (− %) (SW837; 5 mg/kg QD x28): 18.2%
- tumor growth inhibition (%) or regression (− %) (SW837; 10 mg/kg BID x28): 62.1%
- tumor growth inhibition (%) or regression (− %) (SW837; 10 mg/kg QD x28): 95.2%
- tumor growth inhibition (%) or regression (− %) (SW837; 30 mg/kg BID x28): −23.8%
- tumor growth inhibition (%) or regression (− %) (SW837; 30 mg/kg QD x28): 83.5%
- Duration of response (DOR) <6 months ([1]; 50 mg BID): 0 (NE) n (%)
- Patients with best overall response of CR or PR ([1]; 50 mg BID (N = 1)): 0 (0.0) N′ (%)
- Duration of response (DOR) <6 months ([1]; 100 mg BID): 2 (100.0) n (%)
- Patients with best overall response of CR or PR ([1]; 100 mg BID (N = 6)): 2 (33.3) N′ (%)
- Duration of response (DOR) <6 months ([1]; 150 mg BID): 3 (100.0) n (%)
- Patients with best overall response of CR or PR ([1]; 150 mg BID (N = 6)): 3 (50.0) N′ (%)
- Best overall response (BOR): Complete Response (CR), % [1, 2]: (0.0) %
- Best overall response (BOR): Not Evaluable (NE), % [1, 2]: (0.0) %
- Best overall response (BOR): Partial Response (PR), % [1, 2]: (38.5) %
- Best overall response (BOR): Partial Response, pending confirmation and ongoing (uPR), % [1, 2]: (30.8) %
- Best overall response (BOR): Progressive Disease (PD), % [1, 2]: (7.7) %
- Best overall response (BOR): Stable Disease (SD), % [1, 2]: (23.1) %
- Disease control rate (CR + PR + IPR + SD), % [1, 2]: (92.3) %
- Objective response rate (CR + PR), % [1, 2]: (38.5) %
- Objective response rate, confirmed and unconfirmed (CR + PR + uPR), % [1, 2]: (69.2) %
- Patients with best overall response of CR or PR [1, 2]: 5 (38.5) N′ (%)
- Time to response (months), Interquartile range [1, 2]: 0.07 months
- Time to response (months), Median [1, 2]: 1.38 months
- % Change from Baseline in Sum of Diameters for all Target Lesions [1, 3]: 1.1%
- Time (months) of Progressive Disease [1, 3]: 1.1 months
- % Change from Baseline in Sum of Diameters for all Target Lesions [1, 4]: 0.0% and −40.9% and −45.1% and −59.4% and −82.8%
- Best Response [1, 4]: PR Pending; also recorded: PR Confirmed
- Time (months) of Partial Response - Confirmed [1, 4]: 1.3 months and 1.1 months
- Time (months) of Partial Response - Pending Confirmation and Ongoing [1, 4]: 1.3 months and 1.4 months
- % Change from Baseline in Sum of Diameters for all Target Lesions ([1]; Phase 1b Cohort B4, individual patients, starting dose 100 BID, prior KRAS G12Ci Y): 0.0%
- % Change from Baseline in Sum of Diameters for all Target Lesions [1, 5]: −29.5% and −38.2% and −49.2% and −57.7%
- Best Response [1, 5]: PR Pending; also recorded: PR Confirmed
- Time (months) of Partial Response - Confirmed [1, 5]: 1.4 months (2×) and 3.0 months
- Time (months) of Partial Response - Pending Confirmation and Ongoing ([1]; Phase 1b Cohort B4, individual patients, starting dose 150 BID, prior KRAS G12Ci Y): 1.1 months
- % Change from Baseline in Sum of Diameters for all Target Lesions [1, 6]: −32.1% and 7.3%
- Best Response [1, 6]: PR Confirmed
- Best overall response (BOR): Complete Response (CR), % [1, 7]: (0.0) %
- Best overall response (BOR): Not Evaluable (NE), % [1, 7]: (0.0) %
- Best overall response (BOR): Partial Response (PR), % [1, 7]: (0.0) %
- Best overall response (BOR): Partial Response, pending confirmation and ongoing (uPR), % [1, 7]: (0.0) %
- Best overall response (BOR): Progressive Disease (PD), % [1, 7]: (100.0) %
- Best overall response (BOR): Stable Disease (SD), % [1, 7]: (0.0) %
- Disease control rate (CR + PR + IPR + SD), % [1, 7]: (0.0) %
- Objective response rate (CR + PR), % [1, 7]: (0.0) %
- Objective response rate, confirmed and unconfirmed (CR + PR + uPR), % [1, 7]: (0.0) %
- Patients with best overall response of CR or PR [1, 7]: 0 (0.0) N′ (%)
- Best overall response (BOR): Complete Response (CR), % [1, 8]: (0.0) %
- Best overall response (BOR): Not Evaluable (NE), % [1, 8]: (0.0) %
- Best overall response (BOR): Partial Response (PR), % [1, 8]: (33.3) %
- Best overall response (BOR): Partial Response, pending confirmation and ongoing (uPR), % [1, 8]: (33.3) %
- Best overall response (BOR): Progressive Disease (PD), % [1, 8]: (0.0) %
- Best overall response (BOR): Stable Disease (SD), % [1, 8]: (33.3) %
- Disease control rate (CR + PR + IPR + SD), % [1, 8]: (100.0) %
- Objective response rate (CR + PR), % [1, 8]: (33.3) %
- Objective response rate, confirmed and unconfirmed (CR + PR + uPR), % [1, 8]: (66.7) %
- Patients with best overall response of CR or PR [1, 8]: 2 (33.3) N′ (%)
- Time to response (months), Interquartile range [1, 8]: 0.26 months
- Time to response (months), Median [1, 8]: 1.22 months
- Best overall response (BOR): Complete Response (CR), % [1, 9]: (0.0) %
- Best overall response (BOR): Not Evaluable (NE), % [1, 9]: 0.0%
- Best overall response (BOR): Partial Response (PR), % [1, 9]: (50.0) %
- Best overall response (BOR): Partial Response, pending confirmation and ongoing (uPR), % [1, 9]: (33.3) %
- Best overall response (BOR): Progressive Disease (PD), % [1, 9]: (0.0) %
- Best overall response (BOR): Stable Disease (SD), % [1, 9]: (16.7) %
- Disease control rate (CR + PR + IPR + SD), % [1, 9]: (100.0) %
- Objective response rate (CR + PR), % [1, 9]: (50.0) %
- Objective response rate, confirmed and unconfirmed (CR + PR + uPR), % [1, 9]: (83.3) %
- Patients with best overall response of CR or PR [1, 9]: 3 (50.0) N′ (%)
- Time to response (months), Interquartile range [1, 9]: 1.61 months
- Time to response (months), Median [1, 9]: 1.41 months
- Time to response (TTR) 2 to <4 months ([1]; Total (N = 13)): 1 (20.0) n (%)
- Time to response (TTR) <2 months ([1]; Total (N = 13)): 4 (80.0) n (%)
- Time to response (TTR) 2 to <4 months [1, 10]: 0 (NE) n (%)
- Time to response (TTR) <2 months [1, 10]: 0 (NE) n (%)
- Time to response (TTR) 2 to <4 months [1, 11]: 0 (0.0) n (%)
- Time to response (TTR) <2 months [1, 11]: 2 (100.0) n (%)
- Time to response (TTR) 2 to <4 months [1, 12]: 1 (33.3) n (%)
- Time to response (TTR) <2 months [1, 12]: 2 (66.7) n (%)
- Duration of response (DOR) <6 months ([1]; Total): 5 (100.0) n (%)
- Patients with best overall response of CR or PR ([1]; Total (N = 13)): 5 (38.5) N′ (%)
- median time to response ([1]; human, in vivo): 1.4 month
